Patent US20070254827A1, “Alpha-aminobenzyl-alpha,alpha,-diphosphoric acid selective chelation of beryllium” (priority 2006, published 2007)

Tests used:
[1] = Initial mouse tolerability experiment with beryllium and chelator; assay type: in vivo, mice; conditions: beryllium and chelator administration, 48-hour experiment
Protocol: LLNL-IBC#2004-029. Two sets of animal experiments were performed.

[2] = Site-300 beryllium oxide debris particle chelation (ICP-MS of filtrates); assay type: physicochemical; conditions: pH 7, equilibrated 3 days
Protocol: The aims of this investigation were not limited to the study of beryllium in biological fluids and systems. A good chelator in the body is likely a good chelator in the environment. […] Particles were obtained from the Contained Firing Facility (CFF) at LLNL Site 300. Approximately 500 mg of beryllium oxide debris was weighed in a tared polyethylene vials and varying concentrations of APMDP chelator (pH adjusted to pH 7) were added to each vial. The vials were left to stand for 3 days, with manual shaking performed for 2 minutes each, twice a day. Samples were then filtered through a 0.2 um membrane and filtrates were analyzed by ICP-MS.

[3] = in vivo; cited from earlier work
[4] = cited from earlier work

With `NC(c1ccccc1)(P(=O)(O)O)P(=O)(O)O` [APMDP, α-aminobenzyl-α,α,-diphosphoric acid] the “adverse effect on mice” value [1] was “did not adversely affect the mice” and the “dissolution of insoluble BeO fines” value [2] was “can be dissolved”.
In the case of `NCc1ccccc1` [Benzylamine], the LD-50 [3] is listed as 128 mg/kg.
For `CC(c1ccccc1)N(C)C` (centres unmarked) [N,N-dimethyl-a-methylbenzylamine], the LD-50 [3] is given as 420 mg/kg.
In the case of `CC(N)c1ccccc1` (centres unmarked) [a-methylbenzylamine], the LD-50 [3] is given as 940 mg/kg.
In the case of `O=P(O)(O)c1ccccc1` [phenylphosphonic acid], the water solubility [4] is listed as “water soluble” and the toxic at [3] is listed as 110 mg/kg.
In the case of `O=S(=O)(O)c1cc(O)c(O)c(S(=O)(=O)O)c1` [tiron], the “adverse effect on mice” value [1] was “did not adversely affect the mice”.
